In US10231980B2, “Cortexolone 17alpha-benzoate for use in the treatment of tumours” (COSMO TECHNOLOGIES LTD., priority 2014, dated 2019):
Like-named read-outs stand apart in the source and are kept apart here.

Tests used:
MiaPaca2 (AR low) = test: ATP-dependent proliferation assay with 10 nM DHT, pancreatic cancer cells (Examples 3, 4, 7); conditions: for IC50: Homo sapiens; for TI on Resting PBMC: IC50 resting PBMC / IC50 MiaPaca2; for TI on Stimulated PBMC: IC50 stimulated PBMC / IC50 MiaPaca2
Method: (§1) The experimental method consisted of: • 1. […] After 24 hrs, 10 nM DHT (dihydrotestosterone) with or without anti-androgen compounds, or DMSO vehicle (negative control) was added to the cultures. • 3.
(§2) Data from Experiment 1 were fitted through sigmoidal dose response curves and analyzed using Prizm statistical analysis software. […] The results from 2 sets of experiments follow.
(§3) Data from Experiment 1 was fitted through sigmoidal dose response curves and analyzed using Prizm statistical analysis software.

Panc1 (AR+) = test: as above; conditions: for IC50: Homo sapiens; for TI on Resting PBMC: IC50 resting PBMC / IC50 Panc1; for TI on Stimulated PBMC: IC50 stimulated PBMC / IC50 Panc1
Method: as §1, §2, §3

stimulated PBMC [1] = test: IC50 on stimulated (actively dividing) PBMC; format: cell-based, human; conditions: Homo sapiens, PBMC
Method: (§4) The compound toxicity was determined as follow:
(§5) Therapeutic Index=Safety/Potency=IC50 stimulated PBMC/IC50 cancer cell

resting PBMC = test: IC50 on resting (quiescent) PBMC; format: cell-based, human; conditions: Homo sapiens, PBMC
Method: The IC50 in PBMCs were tested in 2 different activation status: • stimulated—actively dividing cells • resting—quiescent, non-dividing cells
The IC50 in PBMCs were tested in 2 different activation status: • Stimulated—actively dividing cells • Resting—quiescent, non-dividing cells.
IC50 of the compounds was determined on fresh cells isolated from human blood (PBMC).

HT29 = test: MTT colorimetric assay on epithelial intestinal cancer cells; format: cell-based; conditions: for Therapeutic Index (TI), Resting PBMC: IC50 resting PBMC / IC50 HT29; for Therapeutic Index (TI), Stimulated PBMC: IC50 stimulated PBMC / IC50 HT29
LNCaP = test: ATP-dependent cell viability assay (Cell Titer Glo), Example 12; conditions: LNCaP; for IC50: Homo sapiens
Description: (§6) Data shown in Table I were fitted through sigmoidal dose response curves and analyzed using Prizm statistical.

MiaPaca2 = test: as above; conditions: for IC50: Homo sapiens
Description: as §6

PC3 = test: as above; conditions: for IC50: Homo sapiens
Description: as §6

Panc1 = test: as above; conditions: for IC50: Homo sapiens
Description: as §6

MCF7 = test: In vitro proliferation / cytotoxic assay on breast cancer cells (Examples 14, 25); conditions: for IC50: Homo sapiens
7 cancer cell lines = test: Therapeutic index over a panel of cancer cell lines; format: cell-based; conditions: average over the cancer cell lines of Table VII
Method: as §4, §5

stimulated PBMC [2] = test: IC50 on stimulated (actively dividing) PBMC; format: cell-based, human; conditions: PBMC Stim; Table IV
[3] = Experiment 1, 0 = higher toxicity in PBMC
[4] = Homo sapiens, HT-29, 72 h, read-out: Inhibition (%) on HT29

With C[C@]12CCC(=O)C=C1CC[C@@H]1[C@@H]2CC[C@@]2(C)[C@H]1CC[C@]2(OC(=O)c1ccccc1)C(=O)CO [CB-03-06, cortexolone 17α-benzoate] as the molecule, how does the IC50 (MiaPaca2 (AR low); MIA PaCa-2, 72 h, MiaPaca2, Experiment 1, sigmoidal dose response fit, 10 nM DHT, 3 days) read?
The IC50 was 23 µM.

And the IC50 (MiaPaca2 (AR low); MIA PaCa-2, MiaPaca2, Example 7, Experiment 1)?
Its IC50 is 17 µM.

And the IC50 (MiaPaca2 (AR low); MIA PaCa-2, MiaPaca2, Example 7, Experiment 2)?
Its IC50 is 20 µM.

And the IC50 (MiaPaca2 (AR low); MIA PaCa-2, MiaPaca2, Experiment 2, nonlinear regression least squares fit, additional experiments)?
The IC50 was 20 µM.

And the “TI on Resting PBMC” value (MiaPaca2 (AR low); [3])?
The value was 6.

What about the “TI on Resting PBMC” value (MiaPaca2 (AR low); Experiment 2) of the same molecule?
The value was 4.

And the “TI on Stimulated PBMC” value (MiaPaca2 (AR low); [3])?
The value was 7.

And the “TI on Stimulated PBMC” value (MiaPaca2 (AR low); Experiment 2)?
The value was 5.

What about the IC50 (Panc1 (AR+); PANC-1, 72 h, Panc1, Experiment 1, sigmoidal dose response fit, 10 nM DHT, 3 days) of the same molecule?
The IC50 was 30 µM.

And the IC50 (Panc1 (AR+); PANC-1, Panc1, Example 7, Experiment 1)?
Its IC50 is 23 µM.

What about the IC50 (Panc1 (AR+); PANC-1, Panc1, Example 7, Experiment 2) of the same molecule?
The IC50 was 28 µM.

And the IC50 (Panc1 (AR+); PANC-1, Panc1, Experiment 2, nonlinear regression least squares fit, additional experiments)?
Its IC50 is 28 µM.

What about the “TI on Resting PBMC” value (Panc1 (AR+); [3]) of the same molecule?
Its value is 4.

And the “TI on Resting PBMC” value (Panc1 (AR+); Experiment 2)?
Its value is 3.

What about the “TI on Stimulated PBMC” value (Panc1 (AR+); [3]) of the same molecule?
The value was 5.

And the “TI on Stimulated PBMC” value (Panc1 (AR+); Experiment 2)?
Its value is 3.

And the IC50 (stimulated PBMC [1]; read-out: IC50 on Stimulated PBMC, Example 7, Experiment 1)?
The IC50 was 113 µM.

What about the IC50 (stimulated PBMC [1]; read-out: IC50 on Stimulated PBMC, Example 7, Experiment 2) of the same molecule?
Its IC50 is 97 µM.

And the IC50 (stimulated PBMC [1]; read-out: In vitro proliferation IC50, PBMC STIMULATED, Table IV)?
The IC50 was 97 µM.

What about the IC50 (stimulated PBMC [1]; read-out: in vitro proliferation IC50, PBMC STIMULATED, Table III) of the same molecule?
Its IC50 is 97 µM.

And the IC50 (resting PBMC; read-out: IC50 on Resting PBMC, Example 7, Experiment 1)?
The IC50 was 100 µM.

And the IC50 (resting PBMC; read-out: IC50 on Resting PBMC, Example 7, Experiment 2)?
The IC50 was 85 µM.

What about the IC50 (resting PBMC; read-out: in vitro proliferation IC50, PBMC RESTING, Table III) of the same molecule?
Its IC50 is 85 µM.

What about the “Therapeutic Index = IC50 resting PBMC/IC50 cancer cell” value (HT29; HT29, Table IV) of the same molecule?
Its value is 6.

What about the “Therapeutic Index = IC50 stimulated PBMC/IC50 cancer cell” value (HT29; HT29, Table VII) of the same molecule?
Its value is 6.

What about the IC50 (HT29; Homo sapiens, HT-29, 72 h, read-out: IC50 Calculated) of the same molecule?
The IC50 was 16 µM.

What about the inhibition at 0.8 µM (HT29; [4]) of the same molecule?
Its inhibition at 0.8 µM is -1.55%.

And the inhibition at 4 µM (HT29; [4])?
Its inhibition at 4 µM is 20.4%.

And the inhibition at 20 µM (HT29; [4])?
The inhibition at 20 µM was 53.6%.

What about the inhibition at 100 µM (HT29; [4]) of the same molecule?
The inhibition at 100 µM was 92.2%.

What about the inhibition at 500 µM (HT29; [4]) of the same molecule?
The inhibition at 500 µM was 92.3%.

And the IC50 (HT29; Homo sapiens, HT-29, read-out: In vitro proliferation IC50)?
Its IC50 is 16 µM.

And the IC50 (HT29; Homo sapiens, HT-29, read-out: in vitro proliferation IC50)?
Its IC50 is 13 µM.

What about the “Therapeutic Index (TI), Resting PBMC” value (HT29; Experiment 1) of the same molecule?
The value was 6.

And the “Therapeutic Index (TI), Resting PBMC” value (HT29; Experiment 2)?
Its value is 5.

What about the “Therapeutic Index (TI), Stimulated PBMC” value (HT29; Experiment 1) of the same molecule?
Its value is 7.

And the “Therapeutic Index (TI), Stimulated PBMC” value (HT29; Experiment 2)?
Its value is 6.

What about the IC50 (LNCaP; 72 h) of the same molecule?
Its IC50 is 12 µM.

And the IC50 (LNCaP; read-out: In vitro proliferation IC50)?
The IC50 was 12 µM.

What about the IC50 (LNCaP; read-out: in vitro proliferation IC50) of the same molecule?
The IC50 was 12 µM.

And the “Therapeutic Index = IC50 resting PBMC/IC50 cancer cell” value (LNCaP; Table IV)?
The value was 8.

And the “Therapeutic Index = IC50 stimulated PBMC/IC50 cancer cell” value (LNCaP; Table VII)?
Its value is 8.

And the IC50 (MiaPaca2; MIA PaCa-2, 72 h)?
The IC50 was 20 µM.

What about the IC50 (MiaPaca2; MIA PaCa-2, read-out: In vitro proliferation IC50) of the same molecule?
The IC50 was 20 µM.

And the IC50 (MiaPaca2; MIA PaCa-2, read-out: in vitro proliferation IC50)?
Its IC50 is 20 µM.

And the “Therapeutic Index = IC50 resting PBMC/IC50 cancer cell” value (MiaPaca2; MiaPaca2, Table IV)?
The value was 5.

And the “Therapeutic Index = IC50 stimulated PBMC/IC50 cancer cell” value (MiaPaca2; MiaPaca2, Table VII)?
The value was 5.

And the IC50 (PC3; PC-3, 72 h)?
The IC50 was 28 µM.

And the IC50 (PC3; PC-3, read-out: In vitro proliferation IC50)?
Its IC50 is 28 µM.

What about the IC50 (PC3; PC-3, read-out: in vitro proliferation IC50) of the same molecule?
The IC50 was 28 µM.

And the “Therapeutic Index = IC50 resting PBMC/IC50 cancer cell” value (PC3; PC3, Table IV)?
The value was 3.

What about the “Therapeutic Index = IC50 stimulated PBMC/IC50 cancer cell” value (PC3; PC3, Table VII) of the same molecule?
The value was 3.

What about the IC50 (Panc1; PANC-1, 72 h) of the same molecule?
The IC50 was 28 µM.

And the IC50 (Panc1; PANC-1, read-out: In vitro proliferation IC50)?
The IC50 was 28 µM.

And the IC50 (Panc1; PANC-1, read-out: in vitro proliferation IC50)?
The IC50 was 28 µM.

And the “Therapeutic Index = IC50 resting PBMC/IC50 cancer cell” value (Panc1; Panc1, Table IV)?
Its value is 3.

And the “Therapeutic Index = IC50 stimulated PBMC/IC50 cancer cell” value (Panc1; Panc1, Table VII)?
Its value is 3.

And the IC50 (MCF7; MCF7, 72 h)?
Its IC50 is 25 µM.

And the IC50 (MCF7; MCF7, read-out: In vitro proliferation IC50)?
Its IC50 is 25 µM.

What about the IC50 (MCF7; MCF7, read-out: in vitro proliferation IC50) of the same molecule?
The IC50 was 25 µM.

And the “Therapeutic Index = IC50 resting PBMC/IC50 cancer cell” value (MCF7; MCF7, Table IV)?
The value was 4.

What about the “Therapeutic Index = IC50 stimulated PBMC/IC50 cancer cell” value (MCF7; MCF7, Table VII) of the same molecule?
Its value is 4.

What about the “Therapeutic Index = IC50 stimulated PBMC/IC50 cancer cell, AVERAGE” value (7 cancer cell lines) of the same molecule?
Its value is 5.

And the “Therapeutic Index = IC50 resting PBMC/IC50 cancer cell” value (stimulated PBMC [2])?
The value was 1.
